Measurements from patent US20090209474A1, “NOVEL USES FOR DRUGS TARGETING GLUTAMINE SYNTHETASE” (NEWTHERA, priority 2005, published 2009).
Read-outs that look alike come from different tables or passages of the source. Residues, ends and D or L forms follow the SMILES beside them.

Key:
Wistar rat brain GS = biological target: T1, Wistar rat brain GS (Rattus norvegicus, UniProt P09606); assay: GS activity in Wistar rat brain homogenates; type: biochemical; conditions: in absence of 2β-ME
T1 construct: from tissue; host or cells: Wistar rat brain homogenate or membranes; in A19 also liver and lungs
T1 sequence (P09606 2-373 limits assumed): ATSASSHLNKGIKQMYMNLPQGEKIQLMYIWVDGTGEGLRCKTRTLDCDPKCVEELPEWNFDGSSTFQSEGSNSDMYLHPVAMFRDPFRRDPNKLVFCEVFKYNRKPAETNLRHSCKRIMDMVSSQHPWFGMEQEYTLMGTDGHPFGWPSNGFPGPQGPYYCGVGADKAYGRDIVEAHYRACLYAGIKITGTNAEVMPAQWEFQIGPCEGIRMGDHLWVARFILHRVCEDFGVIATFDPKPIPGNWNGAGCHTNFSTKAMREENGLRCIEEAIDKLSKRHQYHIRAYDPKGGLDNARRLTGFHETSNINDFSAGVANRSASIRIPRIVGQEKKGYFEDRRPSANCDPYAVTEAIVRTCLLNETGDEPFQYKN
Experimental: GS activity was assessed as mentioned above for purified sheep brain GS.

GS (rat liver) = GS (rat liver) (Rattus norvegicus, UniProt P09606); conditions: cited from earlier work
Sequence of GS (rat liver) (P09606 2-373 limits assumed): as above

GS (sheep brain) = conditions: cited from earlier work
[1] = tested on: glutamate metabotropic receptor; conditions: cited from earlier work
GS [2] = conditions: cited from earlier work
GS [3] = biological target: GS (Rattus norvegicus, UniProt P09606); type: in vivo, Wistar rats; set-up: Wistar rat brain homogenates were incubated with naftazone; from tissue; host or cells: Wistar rat brain homogenate or membranes; in A19 also liver and lungs; conditions: one hour after PTZ 50 mg/kg i.p.
Sequence of GS (Rattus norvegicus, UniProt P09606) (P09606 2-373 limits assumed): as above

purified sheep brain GS = assay: Purified sheep brain GS activity (Meister's method, gamma-glutamylhydroxamate formation); type: biochemical
[4] = Adrenal weight in corticosterone-administered rats; type: in vivo, Wistar rats
Wistar rats [5] = assay: Forced swimming test in corticosterone-administered rats; type: in vivo
Wistar rats [6] = assay: Open field task in corticosterone-administered rats; type: in vivo; conditions: day 15, corticosterone 35 mg/kg s.c.; versus PCB and Control
Wistar rats [7] = assay: PTZ-induced seizures; type: in vivo; conditions: rat, in vivo

Compound: [Sr+2] [strontium]
- maximum decrease of GS activity (Wistar rat brain GS; at 10^−10 M): 75%

Compound: NC(CCC(=O)O)P(=O)(O)O (stereo not shown) [4-Amino-4-phosphono butanoic acid]
- Ki (GS (rat liver)): 1300 µM

Compound: CC(N)(CCP(C)(=O)O)C(=O)O (stereo not drawn) [Alpha-methyl phosphinothricin]
- Ki (GS (sheep brain)): 125 µM

Compound: CCC(N)(CCP(C)(=O)O)C(=O)O (stereo not drawn) [Alpha-ethyl phosphinothricin]
- Ki (GS (sheep brain)): 111 µM

Compound: O=C(O)[C@@H]1C[C@@H](C(=O)O)N1 (relative stereo) [Trans-Azetidine-2,4-dicarboxylic acid]
- activity at glutamate metabotropic receptors in words [1]: Group I selective glutamate metabotropic receptor agonist. (activates mGlu1 and mGlu5) Kozikowski et al., 1993

Compound: N[C@@]1(C(=O)O)CC[C@H](C(=O)O)C1 [1-Aminocyclopentane-cis-1,3-dicarboxylic acid]
- activity at glutamate metabotropic receptors in words [1]: Group I/II glutamate metabotropic receptor agonist Olverman et al., 1983

Compound: N[C@@H](CSS(=O)(=O)[O-])C(=O)O.[Na+] [S-Sulfo-L-cysteine sodium salt]
- activity at glutamate metabotropic receptors in words [1]: mGlu1a and mGlu5a glutamate metabotropic receptor agonist Mewett et al., 1983

Compound: CC(N)(CCC(=O)O)[PH](=O)CO (stereo not shown) [4-Amino-4-(hydroxymethylphosphinyl)-4-methyl butanoic acid]
- Ki (GS (rat liver); read-out: Ki): 9500 µM

Compound: CP(=O)(O)C(O)CC(N)C(=O)O (stereo not shown) [Gamma-hydroxy phosphinothricin]
- Ki (GS (sheep brain)): 47 µM

Compound: NC(CCP(=O)(O)O)C(=O)O (stereo not shown) [2-Amino-4-phosphono butanoic acid]
- Ki (GS (rat liver)): 880 µM

Compound: C[C@@](N)(CCS(C)(=N)=O)C(=O)O (stereo partly drawn) [Alpha-methyl methionine sulfoximine]
- GS inhibition in words (GS [2]): Slightly less inhibitory synthetic MS derivative Eisenberg et al., 2000

Compound: CP(=O)(O)C(N)CCC(=O)O (stereo not shown) [4-Amino-4-(hydroxymethylphosphinyl) butanoic acid]
- Ki (GS (rat liver)): 800 µM

Compound: N[C@H](C(=O)O)[C@@H]1[C@@H](C(=O)O)C1(F)F [(2S,1′S,2′S)-2-(2′-Carboxy-3′,3′-difluorocyclopropyl)glycine]
- activity at glutamate metabotropic receptors in words [1]: Glutamate metabotropic receptor agonist Shinozaki et al., 1996

Compound: CC(CC(N)C(=O)O)P(C)(=O)O (stereo not shown) [Gamma methyl phosphinothricin]
- Ki (GS (sheep brain)): 407 µM

Compound: N[C@H](C(=O)O)c1cc(=O)[nH]o1 [Ibotenic acid]
- activity at glutamate metabotropic receptors in words [1]: Glutamate metabotropic receptor agonist Johnston, 1968

Compound: N[C@@H](C[C@H](CCCC(c1ccccc1)c1ccccc1)C(=O)O)C(=O)O [(4S)-4-(4,4-Diphenylbutyl)-L-glutamic acid]
- activity at glutamate metabotropic receptors in words [1]: Selective and competitive mGlu2 glutamate metabotropic receptor antagonist Wermuth et al., 1996

Compound: N[C@@H](CCS(=O)(=O)CP(=O)(O)O)C(=O)O [s-Phosphonomethyl homocysteine sulfone]
- Ki (GS [2]): 1400 µM

Compound: C1CCc2nnnn2CC1 [PTZ, pentylenetetrazole]
- GS activity in the cortex, hippocampus and thalamus (GS [3]): low

Compound: N[C@@H](CC[S+]([O-])CP(=O)(O)O)C(=O)O (stereo partly shown) [s-Phosphonomethyl homocysteine sulfoxide]
- GS inhibition in words (GS [2]): Synthetic inhibitor Logusch et al., 1988 Eisenberg et at., 2000

Compound: COC(=O)CCC(N)P(=O)(O)O (stereo not shown) [Methyl 4-amino-4-phosphono butanate]
- Ki (GS (rat liver)): 2100 µM

Compound: NC(C(=O)O)c1cccc(O)c1 (racemic) [(RS)-3-Hydroxyphenylglycine]
- activity at glutamate metabotropic receptors in words [1]: Glutamate metabotropic receptor agonist Thomsen and Suzdak, 1993

Compound: NNC(=O)c1ccncc1 [isoniazid, Isoniazid]
- tested on GS activity: ligand or not (purified sheep brain GS): GS ligands

Compound: CC(=O)N[C@@H](CC(=O)O)C(=O)N[C@@H](CCC(=O)O)C(=O)O [N-Acetyl-L-aspartyl-L-glutamic acid] (Ac-Asp-Glu-OH)
- activity at glutamate metabotropic receptors in words [1]: Highly selective mGlu3 glutamate metabotropic receptor agonist Morris et al., 1965

Compound: N[C@]1(C(=O)O)CCc2cc(C(=O)O)ccc21 (racemic) [(RS)-1-Aminoindan-1,5-dicarboxylic acid]
- activity at glutamate metabotropic receptors in words [1]: mGlu1 glutamate metabotropic receptor antagonist Pellicciari et al.,1995

Compound: CS(=O)(=O)CC[C@H](N)C(=O)O [Methionine sulfone]
- GS inhibition in words (GS [2]): Very potent ATP-dependent inhibitor of GS activity in a number of species. First discovered in nitrogen chloride treated zein. Eisenberg et al., 2000

Compound: (2S,3S,4S)-2-Methyl-2-(carboxycyclopropyl)glycine
- activity at glutamate metabotropic receptors in words [1]: mGlu2 glutamate metabotropic receptor antagonist Jane et al., 1994

Compound: Cc1cc(C(=O)O)ccc1[C@H](N)C(=O)O [(S)-(+)-Amino-4-carboxy-2-methylbenzeneacetic acid]
- activity at glutamate metabotropic receptors in words [1]: Selective mGlu1a glutamate metabotropic receptor antagonist Clarke et al., 1997

Compound: NC1(C(=O)O)CCCC(P(=O)(O)O)C1 (stereo not shown) [Cyclohexane phosphinothricin, 1-Amino-3-phosphono-cyclohexane-carboxylic acid]
- Ki (GS (sheep brain)): 125 µM

Compound: CC1(/C=C/c2ccccc2)C=CC=CN1 (stereo not shown) [2-Methyl-2-(phenylethenyl)pyridine]
- activity at glutamate metabotropic receptors in words [1]: Selective mGlu5 glutamate metabotropic receptor antagonist Varney et al., 1999

Compound: [Li] [lithium, Li2CO3]
- maximum decrease of GS activity (Wistar rat brain GS; at 0.01 M): 40%

Compound: Cc1ccc(O)c(/N=N/c2ccccc2)n1 [6-Methyl-2-(phenylazo)-3-pyridinol]
- activity at glutamate metabotropic receptors in words [1]: Selective mGlu5 glutamate metabotropic receptor antagonist Varney et al., 1999

Compound: C[C@]12C[C@H](O)[C@H]3[C@@H](CCC4=CC(=O)CC[C@@]43C)[C@@H]1CC[C@@H]2C(=O)CO [corticosterone]
- adrenal weight ([4]; repeated administration of corticosterone): decreased the adrenal weight

Compound: CC(N)(CCP(=O)(O)O)C(=O)O (stereo not shown) [2-Amino-2-methyl-4-phosphono butanoic acid]
- Ki (GS (rat liver)): 6300 µM

Compound: C[C@@](N)(CCP(=O)(O)O)C(=O)O [2-Amino-2-methyl-4-phosphono-butyric acid]
- activity at glutamate metabotropic receptors in words [1]: Selective mGlu3 glutamate metabotropic receptor antagonist Sekiyama et al., 1996

Compound: NC(C(=O)O)c1cc(O)cc(O)c1 (racemic) [(RS)-3,5-Dihydroxyphenylglycine]
- activity at glutamate metabotropic receptors in words [1]: Group I selective glutamate metabotropic receptor agonist (activates mGlu1 and mGlu5) Schoepp et al., 1994

Compound: CN1c2ccccc2C(NCCCCCCC(=O)O)c2ccc(Cl)cc2S1(=O)=O (stereo not shown) [tianeptine, 7-[(3-chloro-6,11-dihydro-6-methyl-dibenzo[c,f][1,2]thiazepin-11-yl)amino] heptanoic acid S,S-dioxide]
- immobility in the forced swimming test (Wistar rats [5]; GF 0.1 mg/kg, tianeptine 0.5 mg/kg): clear decrease in immobility
- immobility in the forced swimming test (Wistar rats [5]; day 19, corticosterone 35 mg/kg s.c., versus PCB and Control): comparable or lower
- adrenal weight ([4]; 21 days, versus PCB): higher
- resting time in the open field task (Wistar rats [6]): higher
- dose of maximum effect on seizures (Wistar rats [7]): 10 mg/kg
- dose relation of the effect on seizures (Wistar rats [7]): U-shaped

Compound: COC(=O)C(CCP(=O)(O)O)C(=O)O (stereo not shown) [2-Methoxycarbonyl-4-phosphono butanoic acid]
- Ki (GS (rat liver)): 8700 µM

Compound: N[C@](CC1c2ccccc2Oc2ccccc21)(C(=O)O)[C@H]1C[C@@H]1C(=O)O [(2S)-2-Amino-2-[(1S,2S)-2-carboxycycloprop-1-yl]-3-(xanth-9-yl) propanoic acid]
- activity at glutamate metabotropic receptors in words [1]: Highly potent mGlu2 glutamate metabotropic receptor antagonist Ornstein et al., 1998
